Source: ChEMBL document CHEMBL5052819, “Peptide targeting gip and glp-2 receptors for treating bone disorders” (2020)
Activity calls are given as the source filed them. The rule behind the calls is not given here.

What was measured:
RAW264.7 = assay: Inhibition of RANKL-induced osteoclastogenesis in mouse RAW264.7 cells measured after 110 hrs by TRAcP staining based assay; assay type: functional, cell-based; conditions: RAW264.7, 110 h
HEK293 = assay: Activation of GIP/GLP2 receptor transfected in human HEK293 cells assessed as increase in intracellular cAMP level at 1 nM; assay type: cell-based; conditions: filed as activator
[1] = Toxicity in ovariectomized BALB/c mouse at 25 nmol/kg, sc assessed as effect on morphological changes in liver; assay type: organism-based; conditions: in vivo
[2] = Toxicity in ovariectomized BALB/c mouse at 25 nmol/kg, sc assessed as effect on morphological changes in pancreas; assay type: organism-based; conditions: in vivo
Mus musculus [3] = assay: Anti-osteoporosis activity in ovariectomized BALB/c mouse at 25 nmol/kg/day, sc assessed as increase in work-to-fracture of cortical bone; assay type: functional
Mus musculus [4] = assay: Anti-osteoporosis activity in ovariectomized BALB/c mouse at 25 nmol/kg, sc assessed as increase in collagen maturity; assay type: functional
Mus musculus [5] = assay: Anti-osteoporosis activity in ovariectomized BALB/c mouse at 25 nmol/kg, sc assessed as increase in collagen maturity heterogeneity; assay type: functional
MC3T3-E1 = assay: Cytotoxicity against mouse MC3T3-E1 cells at 1 uM measured after 24 hrs by trypan blue assay; assay type: toxicity, cell-based; conditions: mc3t3-e1, 24 h
Mus musculus [6] = assay: Anti-osteoporosis activity in ovariectomized BALB/c mouse at 25 nmol/kg/day, sc assessed as reduction in trabecular bone stiffness; assay type: functional, organism-based
Mus musculus [7] = assay: Anti-osteoporosis activity in ovariectomized BALB/c mouse at 25 nmol/kg, sc assessed as increase in acid phosphate content heterogeneity; assay type: functional
Mus musculus [8] = assay: Anti-osteoporosis activity in ovariectomized BALB/c mouse at 25 nmol/kg, sc assessed as decrease in mean phosphate/amide ratio; assay type: functional; set-up: scale not given: the % may be the effect or the level left
Mus musculus [9] = assay: Anti-osteoporosis activity in ovariectomized BALB/c mouse at 25 nmol/kg/day, sc assessed as increase in post-yield displacement of cortical bone; assay type: functional
[10] = Toxicity in ovariectomized BALB/c mouse assessed as effect on body mass at 25 nmol/kg/day, sc; conditions: in vivo
Mus musculus [11] = assay: Anti-osteoporosis activity in ovariectomized BALB/c mouse at 25 nmol/kg/day, sc assessed as effect on cortical bone microarchitecture; assay type: functional, organism-based
Mus musculus [12] = assay: Anti-osteoporosis activity in ovariectomized BALB/c mouse at 25 nmol/kg/day, sc assessed as increase in ultimate displacement of cortical bone; assay type: functional
[13] = Toxicity in ovariectomized BALB/c mouse assessed as effect on body mass at 25 to 100 nmol/kg/day, sc

CC(C)C[C@H](NC(=O)[C@H](CCCCN)NC(=O)[C@H](CC(=O)O)NC(=O)[C@H](CC(C)C)NC(=O)[C@@H](NC(=O)[C@@H](NC(=O)[C@H](CO)NC(=O)[C@H](Cc1ccccc1)NC(=O)[C@H](CC(=O)O)NC(=O)[C@H](CO)NC(=O)[C@@H](NC(=O)[C@H](Cc1ccccc1)NC(=O)[C@H](CO)NC(=O)CNC(=O)[C@H](CCC(=O)O)NC(=O)CNC(=O)[C@@H](N)Cc1cnc[nH]1)C(C)C)C(C)C)C(C)C)C(=O)N[C@@H](C)C(=O)N[C@@H](C)C(=O)N[C@@H](CCCNC(=N)N)C(=O)N[C@@H](CC(=O)O)C(=O)N[C@@H](Cc1ccccc1)C(=O)N[C@H](C(=O)N[C@@H](CC(N)=O)C(=O)N[C@@H](Cc1c[nH]c2ccccc12)C(=O)N[C@@H](CC(C)C)C(=O)N[C@@H](CC(C)C)C(=O)N[C@@H](CCC(N)=O)C(=O)N[C@H](C(=O)N[C@@H](CCCCN)C(N)=O)[C@@H](C)O)C(C)C
IC50 (RAW264.7): 0.0096 nM

CC[C@H](C)[C@H](NC(=O)[C@H](CO)NC(=O)[C@H](CCSC)NC(=O)[C@H](CC(=O)O)NC(=O)[C@H](CO)NC(=O)CNC(=O)[C@H](Cc1ccccc1)NC(=O)[C@H](CO)NC(=O)CNC(=O)[C@H](CCC(=O)O)NC(=O)CNC(=O)[C@@H](N)Cc1cnc[nH]1)C(=O)N[C@@H](C)C(=O)N[C@@H](CC(C)C)C(=O)N[C@@H](CC(=O)O)C(=O)N[C@@H](CCCCN)C(=O)N[C@@H](CC(C)C)C(=O)N[C@@H](C)C(=O)N[C@@H](C)C(=O)N[C@@H](CCCNC(=N)N)C(=O)N[C@@H](CC(=O)O)C(=O)N[C@@H](Cc1ccccc1)C(=O)N[C@H](C(=O)N[C@@H](CC(N)=O)C(=O)N[C@@H](Cc1c[nH]c2ccccc12)C(=O)N[C@@H](CC(C)C)C(=O)N[C@@H](CC(C)C)C(=O)N[C@@H](CCC(N)=O)C(=O)N[C@H](C(=O)N[C@@H](CCCCN)C(=O)N[C@H](C(=O)N[C@H](C(=O)N[C@@H](CC(=O)O)C(N)=O)[C@@H](C)O)[C@@H](C)CC)[C@@H](C)O)C(C)C
Activity (HEK293): Active
Activity [1]: Non-Toxic
Activity [2]: Non-Toxic
Activity (Mus musculus [3]): 37%
Activity (Mus musculus [4]): 10%
Activity (Mus musculus [5]): 28%
Activity (MC3T3-E1): Non-Toxic
Activity (Mus musculus [6]): Active
Activity (Mus musculus [7]): 21%
IC50 (RAW264.7): 0.0182 nM
Activity (Mus musculus [8]): 6%
Activity (Mus musculus [9]): 70%
Activity [10]: Non-Toxic
Activity (Mus musculus [11]): inactive
Activity (Mus musculus [12]): 34%

CC[C@H](C)[C@H](NC(=O)[C@H](CO)NC(=O)[C@H](CCSC)NC(=O)[C@H](CCC(=O)O)NC(=O)[C@H](CO)NC(=O)[C@@H](NC(=O)[C@H](Cc1ccccc1)NC(=O)[C@H](CO)NC(=O)CNC(=O)[C@H](CCC(=O)O)NC(=O)CNC(=O)[C@@H](N)Cc1cnc[nH]1)C(C)C)C(=O)N[C@H](C(=O)N[C@@H](CC(C)C)C(=O)N[C@@H](CC(=O)O)C(=O)N[C@@H](CCCCN)C(=O)N[C@@H](CC(C)C)C(=O)N[C@@H](C)C(=O)N[C@@H](C)C(=O)N[C@@H](CCCNC(=N)N)C(=O)N[C@@H](CC(=O)O)C(=O)N[C@@H](Cc1ccccc1)C(=O)N[C@H](C(=O)N[C@@H](CC(N)=O)C(=O)N[C@@H](Cc1c[nH]c2ccccc12)C(=O)N[C@@H](CC(C)C)C(=O)N[C@@H](CC(C)C)C(=O)N[C@@H](CCC(N)=O)C(=O)N[C@H](C(=O)N[C@@H](CCCCN)C(N)=O)[C@@H](C)O)C(C)C)C(C)C
IC50 (RAW264.7): 4.63 nM

CSCC[C@H](NC(=O)[C@H](CC(=O)O)NC(=O)[C@H](CO)NC(=O)[C@@H](NC(=O)[C@H](Cc1ccccc1)NC(=O)[C@H](CO)NC(=O)CNC(=O)[C@H](CCC(=O)O)NC(=O)CNC(=O)[C@@H](N)Cc1cnc[nH]1)C(C)C)C(=O)N[C@@H](CO)C(=O)N[C@H](C(=O)N[C@H](C(=O)N[C@@H](CC(C)C)C(=O)N[C@@H](CC(=O)O)C(=O)N[C@@H](CCCCN)C(=O)N[C@@H](CC(C)C)C(=O)N[C@@H](C)C(=O)N[C@@H](C)C(=O)N[C@@H](CCCNC(=N)N)C(=O)N[C@@H](CC(=O)O)C(=O)N[C@@H](Cc1ccccc1)C(=O)N[C@H](C(=O)N[C@@H](CC(N)=O)C(=O)N[C@@H](Cc1c[nH]c2ccccc12)C(=O)N[C@@H](CC(C)C)C(=O)N[C@@H](CC(C)C)C(=O)N[C@@H](CCC(N)=O)C(=O)N[C@H](C(=O)N[C@@H](CCCCN)C(N)=O)[C@@H](C)O)C(C)C)C(C)C)C(C)C
IC50 (RAW264.7): 0.0116 nM

CC[C@H](C)[C@H](NC(=O)[C@H](CO)NC(=O)[C@H](Cc1ccccc1)NC(=O)[C@H](CC(=O)O)NC(=O)[C@H](CO)NC(=O)[C@@H](NC(=O)[C@H](Cc1ccccc1)NC(=O)[C@H](CO)NC(=O)CNC(=O)[C@H](CCC(=O)O)NC(=O)CNC(=O)[C@@H](N)Cc1cnc[nH]1)[C@@H](C)O)C(=O)N[C@@H](C)C(=O)N[C@@H](CC(C)C)C(=O)N[C@@H](CC(=O)O)C(=O)N[C@@H](CCCCN)C(=O)N[C@@H](CC(C)C)C(=O)N[C@@H](C)C(=O)N[C@@H](C)C(=O)N[C@@H](CCCNC(=N)N)C(=O)N[C@@H](CC(=O)O)C(=O)N[C@@H](Cc1ccccc1)C(=O)N[C@H](C(=O)N[C@@H](CC(N)=O)C(=O)N[C@@H](Cc1c[nH]c2ccccc12)C(=O)N[C@@H](CC(C)C)C(=O)N[C@@H](CC(C)C)C(=O)N[C@@H](CCC(N)=O)C(=O)N[C@H](C(=O)N[C@@H](CCCCN)C(N)=O)[C@@H](C)O)C(C)C
IC50 (RAW264.7): 0.0168 nM

CC[C@H](C)[C@H](NC(=O)[C@H](CO)NC(=O)[C@H](CCSC)NC(=O)[C@H](CC(=O)O)NC(=O)[C@H](CO)NC(=O)[C@@H](NC(=O)[C@H](Cc1ccccc1)NC(=O)[C@H](CO)NC(=O)CNC(=O)[C@H](CCC(=O)O)NC(=O)CNC(=O)[C@@H](N)Cc1cnc[nH]1)C(C)C)C(=O)N[C@H](C(=O)N[C@@H](CC(C)C)C(=O)N[C@@H](CC(=O)O)C(=O)N[C@@H](CCCCN)C(=O)N[C@@H](CC(C)C)C(=O)N[C@@H](C)C(=O)N[C@@H](C)C(=O)N[C@@H](CCCNC(=N)N)C(=O)N[C@@H](CC(=O)O)C(=O)N[C@@H](Cc1ccccc1)C(=O)N[C@H](C(=O)N[C@@H](CC(N)=O)C(=O)N[C@@H](Cc1c[nH]c2ccccc12)C(=O)N[C@@H](CC(C)C)C(=O)N[C@@H](CC(C)C)C(=O)N[C@@H](CCC(N)=O)C(=O)N[C@H](C(=O)N[C@@H](CCCCN)C(N)=O)[C@@H](C)O)C(C)C)C(C)C
IC50 [13]: Non-Toxic

CC[C@H](C)[C@H](NC(=O)[C@H](CO)NC(=O)[C@H](Cc1ccccc1)NC(=O)[C@H](CC(=O)O)NC(=O)[C@H](CO)NC(=O)[C@@H](NC(=O)[C@H](Cc1ccccc1)NC(=O)[C@H](CO)NC(=O)CNC(=O)[C@H](CCC(=O)O)NC(=O)CNC(=O)[C@@H](N)Cc1cnc[nH]1)C(C)C)C(=O)N[C@@H](C)C(=O)N[C@@H](CC(C)C)C(=O)N[C@@H](CC(=O)O)C(=O)N[C@@H](CCCCN)C(=O)N[C@@H](CC(C)C)C(=O)N[C@@H](C)C(=O)N[C@@H](C)C(=O)N[C@@H](CCCNC(=N)N)C(=O)N[C@@H](CC(=O)O)C(=O)N[C@@H](Cc1ccccc1)C(=O)N[C@H](C(=O)N[C@@H](CC(N)=O)C(=O)N[C@@H](Cc1c[nH]c2ccccc12)C(=O)N[C@@H](CC(C)C)C(=O)N[C@@H](CC(C)C)C(=O)N[C@@H](CCC(N)=O)C(=O)N[C@H](C(=O)N[C@@H](CCCCN)C(N)=O)[C@@H](C)O)C(C)C
IC50 (RAW264.7): 0.18 nM

CC[C@H](C)[C@H](NC(=O)[C@H](CO)NC(=O)[C@H](Cc1ccc(O)cc1)NC(=O)[C@H](CC(=O)O)NC(=O)[C@H](CO)NC(=O)[C@@H](NC(=O)[C@H](Cc1ccccc1)NC(=O)[C@@H](NC(=O)CNC(=O)[C@H](CCC(=O)O)NC(=O)[C@@H](C)NC(=O)[C@@H](N)Cc1ccc(O)cc1)[C@@H](C)O)[C@@H](C)CC)C(=O)N[C@@H](C)C(=O)N[C@@H](CCSC)C(=O)N[C@@H](CC(=O)O)C(=O)N[C@@H](CCCCN)C(=O)N[C@H](C(=O)N[C@@H](Cc1cnc[nH]1)C(=O)N[C@@H](CCC(N)=O)C(=O)N[C@@H](CCC(N)=O)C(=O)N[C@@H](CC(=O)O)C(=O)N[C@@H](Cc1ccccc1)C(=O)N[C@H](C(=O)N[C@@H](CC(N)=O)C(=O)N[C@@H](Cc1c[nH]c2ccccc12)C(=O)N[C@@H](CC(C)C)C(=O)N[C@@H](CC(C)C)C(=O)N[C@@H](C)C(=O)N[C@@H](CCC(N)=O)C(=O)N[C@@H](CCCCN)C(N)=O)C(C)C)[C@@H](C)CC
Activity (HEK293): Active
IC50 (RAW264.7): 0.0401 nM

CC(C)C[C@H](NC(=O)[C@H](CCCCN)NC(=O)[C@H](CC(=O)O)NC(=O)[C@H](CC(C)C)NC(=O)[C@@H](NC(=O)[C@@H](NC(=O)[C@H](CO)NC(=O)[C@H](CC(C)C)NC(=O)[C@H](CC(=O)O)NC(=O)[C@H](CO)NC(=O)[C@@H](NC(=O)[C@H](Cc1ccccc1)NC(=O)[C@H](CO)NC(=O)CNC(=O)[C@H](CCC(=O)O)NC(=O)CNC(=O)[C@@H](N)Cc1cnc[nH]1)C(C)C)C(C)C)C(C)C)C(=O)N[C@@H](C)C(=O)N[C@@H](C)C(=O)N[C@@H](CCCNC(=N)N)C(=O)N[C@@H](CC(=O)O)C(=O)N[C@@H](Cc1ccccc1)C(=O)N[C@H](C(=O)N[C@@H](CC(N)=O)C(=O)N[C@@H](Cc1c[nH]c2ccccc12)C(=O)N[C@@H](CC(C)C)C(=O)N[C@@H](CC(C)C)C(=O)N[C@@H](CCC(N)=O)C(=O)N[C@H](C(=O)N[C@@H](CCCCN)C(N)=O)[C@@H](C)O)C(C)C
IC50 (RAW264.7): 0.0107 nM
